From patent US11814392B2, “Chromenopyridine-based compounds and methods of making and use thereof” (Rosalind Franklin University of Medicine and Science, priority 2020, dated 2023)

Legend:
[1] = system: 60 human cancer cell lines; experiment: NCI 60 One-Dose Screen; assay type: cell-based
Text: The one-dose assay reported the growth relative to the no-drug control, and relative to the time zero number of cells. This allowed for the detection of both growth inhibition (values between 0 and 100) and lethality (values less than 0). For example, a value of 100 means no growth inhibition. A value of 40 would mean 60% growth inhibition. A value of 0 means no net growth over the course of the experiment. A value of −40 would mean 40% lethality. A value of −100 means all cells are dead.

[2] = system: NCI-H23; experiment: NCI 60 five-dose screening, NCI-H23
Protocol: (§1) The one-dose and five-dose experiments were conducted according to standard NCI protocols.
(§2) The human tumor cell lines of the cancer screening panel are grown in RPMI 1640 medium containing 5% fetal bovine serum and 2 mM L-glutamine. For a typical screening experiment, cells are inoculated into 96 well microtiter plates in 100 μL at plating densities ranging from 5,000 to 40,000 cells/well depending on the doubling time of individual cell lines. After cell inoculation, the microtiter plates are incubated at 37° C., 5% CO2, 95% air and 100% relative humidity for 24 h prior to addition of experimental drugs.
(§3) After 24 h, two plates of each cell line are fixed in situ with TCA, to represent a measurement of the cell population for each cell line at the time of drug addition (Tz). Experimental drugs are solubilized in dimethyl sulfoxide at 400-fold the desired final maximum test concentration and stored frozen prior to use. […]
(§4) Following drug addition, the plates are incubated for an additional 48 h at 37° C., 5% CO2, 95% air, and 100% relative humidity. […] Bound stain is subsequently solubilized with 10 mM trizma base, and the absorbance is read on an automated plate reader at a wavelength of 515 nm. […] Using the seven absorbance measurements [time zero, (Tz), control growth, (C), and test growth in the presence of drug at the five concentration levels (Ti)], the percentage growth is calculated at each of the drug concentrations levels. Percentage growth inhibition is calculated as: [(Ti−Tz)/(C−Tz)]×100 for concentrations for which Ti>/=Tz [(Ti−Tz)/Tz]×100 for concentrations for which Ti<Tz.
(§5) Three dose response parameters are calculated for each experimental agent. […] The drug concentration resulting in total growth inhibition (TGI) is calculated from Ti=Tz. […] Values are calculated for each of these three parameters if the level of activity is reached; however, if the effect is not reached or is exceeded, the value for that parameter is expressed as greater or less than the maximum or minimum concentration tested.

[3] = system: HCT-15; experiment: NCI 60 five-dose screening, HCT-15
Protocol: (§6) The National Cancer Institute's Developmental Therapeutic preclinical 60 human cancer cell lines were used for an in vitro screen. […] The one-dose and five-dose experiments were conducted according to standard NCI protocols.
as §2
(§7) After 24 h, two plates of each cell line are fixed in situ with TCA, to represent a measurement of the cell population for each cell line at the time of drug addition (Tz). […]
as §4, §5

[4] = system: SW-620; experiment: NCI 60 five-dose screening, SW-620
Protocol: as §6, §2, §7, §4, §5

[5] = system: SF-539; experiment: NCI 60 five-dose screening, SF-539
Protocol: as §6, §2, §7, §4, §5

[6] = system: T-47D; experiment: NCI 60 five-dose screening, T-47D; conditions: 48 h
Protocol: as §6, §2, §7, §4, §5

[7] = system: COLO 205; experiment: NCI 60 five-dose screening, COLO 205
Protocol: as §6, §2, §7, §4, §5

[8] = system: SK-OV-3; experiment: NCI 60 five-dose screening, SK-OV-3
Protocol: as §1, §2, §3, §4, §5

[9] = system: MOLT-4; experiment: NCI 60 five-dose screening, MOLT-4
Protocol: as §6, §2, §7, §4, §5

COc1ccc(SC2c3cc(OC)c(OC)cc3Oc3nc(N)c(C#N)c(N)c32)cc1 (stereo not shown) [Compound 1, 2,4-diamino-7,8-dimethoxy-5-((4-methoxyphenyl)thio)-5H-chromeno[2,3-b]pyridine-3-carbonitrile]
growth inhibition in the One-Dose Screen [1]: significant growth inhibition | GI50 ([2]; Homo sapiens, NCI-H23, 48 h): 1.45 µM | CC50 ([2]; Homo sapiens, NCI-H23, 48 h, read-out: LC50): 6.25 µM | TGI ([2]; NCI-H23 (Non-small cell Lung), five-dose, 48 h): 3.01 µM | TGI ([3]; HCT-15 (Colon Cancer), five-dose, 48 h): 2.23 µM | GI50 ([3]; Homo sapiens, HCT-15, 48 h): 0.97 µM | CC50 ([3]; Homo sapiens, HCT-15, 48 h, read-out: LC50): 5.02 µM | GI50 ([4]; Homo sapiens, SW-620, 48 h): 1.24 µM | CC50 ([4]; Homo sapiens, SW-620, 48 h, read-out: LC50): 8.29 µM | TGI ([4]; SW-620 (Colon Cancer), five-dose, 48 h): 3.20 µM | GI50 ([5]; Homo sapiens, SF-539, 48 h): 1.38 µM | CC50 ([5]; Homo sapiens, SF-539, 48 h, read-out: LC50): 5.2 µM | TGI ([5]; SF-539 (CNS Cancer), five-dose, 48 h): 2.68 µM | GI50 ([6]; Homo sapiens, T47D): 1.3 µM | CC50 ([6]; Homo sapiens, T47D, read-out: LC50): 8.43 µM | TGI ([6]; T-47D (Breast Cancer), five-dose): 3.31 µM | TGI ([7]; COLO 205 (Colon Cancer), five-dose, 48 h): 2.65 µM | GI50 ([7]; Homo sapiens, COLO 205, 48 h): 1.29 µM | CC50 ([7]; Homo sapiens, COLO 205, 48 h, read-out: LC50): 5.43 µM | GI50 ([8]; Homo sapiens, SK-OV-3, 48 h): 1.81 µM | CC50 ([8]; Homo sapiens, SK-OV-3, 48 h, read-out: LC50): 5.66 µM | TGI ([8]; SK-OV-3 (Ovarian Cancer), five-dose, 48 h): 3.20 µM | GI50 ([9]; Homo sapiens, MOLT-4, 48 h): 0.31 µM | CC50 ([9]; Homo sapiens, MOLT-4, 48 h, read-out: LC50): > 100 µM | TGI ([9]; MOLT-4 (Leukemia), five-dose, 48 h): 1.60 µM
